Experimental data as given in PubChem BioAssay AID977605 (Broad Institute, 2014).
The source made the active and inactive calls.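 The calls were made as follows: active = fitted curve reaches 40% activation below the top valid tested dose, in every test run; inconclusive = test runs disagree on the call; inactive = the rest, including effects opposite to the expected direction.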

Assay: E-selectin inducers in HUVECs, dose response, imaging, HUVEC, cherry-picked samples (AID 977605);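 also: signal is the share of imaged cells scored positive for E-selectin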
Conditions: HUVEC E-selectin immunostaining, at 18 µM (top of the series), percent of TNF-alpha response over vehicle
In the case of `C[C@@H]1CN([C@H](C)CO)C(=O)Cc2cc(NC(=O)Cc3ccccc3)ccc2O[C@H]1CN(C)C(=O)Nc1cccc2ccccc12`, the activation is reported as 0.676% (inactive).

Same assay, conditions: HUVEC E-selectin immunostaining, at 19.5 µM (top of the series), percent of TNF-alpha response over vehicle
In the case of `O=C(c1ccco1)N1CCN(C(=O)C2CC2)CC1`, the activation is reported as -0.098% (inactive). In the case of `COCC(=O)N(C)C[C@@H]1Oc2cc(-c3ccc(F)cc3)ccc2S(=O)(=O)N([C@H](C)CO)C[C@H]1C`, the activation is reported as -0.159% (inactive). In the case of `O=C(c1cc(COc2ccc(F)cc2Cl)on1)N(Cc1ccncc1)CC1CCCO1` (stereo unspecified), the activation is reported as -0.279% (inactive). In the case of `CC(C)NC(=O)Nc1ccc2c(c1)C(=O)N([C@@H](C)CO)C[C@@H](C)[C@@H](CN(C)Cc1ccc(C(F)(F)F)cc1)O2`, the activation is reported as 0.127% (inactive). For `C[C@@H]1CN([C@@H](C)CO)C(=O)c2cc(NC(=O)Cc3ccccc3)ccc2O[C@@H]1CN(C)Cc1ccc(Cl)c(Cl)c1`, the activation was 0.002% (inactive). In the case of `C[C@H](CO)N1C[C@H](C)[C@@H](CN(C)Cc2ccc(Oc3ccccc3)cc2)Oc2ccc(NS(C)(=O)=O)cc2CC1=O`, the activation is reported as 0.311% (inactive). In the case of `C[C@@H]1CN([C@H](C)CO)C(=O)c2cccc(NS(=O)(=O)c3cn(C)cn3)c2O[C@@H]1CN(C)Cc1ccc(Cl)c(Cl)c1`, the activation is reported as 0.02% (inactive). In the case of `C[C@@H]1CN([C@H](C)CO)C(=O)Cc2cc(NS(=O)(=O)c3ccccc3)ccc2O[C@@H]1CN(C)Cc1ccc(C(F)(F)F)cc1`, the activation is reported as 0.93% (inactive). In the case of `CCCCc1c(C)nc2ccc(C)cc2c1SCCC(=O)O`, the activation is reported as -0.168% (inactive). In the case of `Cc1ccc(SCc2cc(=O)n(C)[nH]2)cc1`, the activation is reported as 0.221% (inactive). For `C[C@@H]1CN([C@@H](C)CO)C(=O)c2cccc(NC(=O)Nc3ccc4c(c3)OCO4)c2O[C@H]1CN(C)S(=O)(=O)c1ccc(F)cc1`, the activation was -0.076% (inactive). In the case of `O=C(NC1CCCC1)c1cc(-c2ccccc2O)on1`, the activation is reported as 0.323% (inactive). For `O=S(=O)(NCc1csc(-c2cccs2)n1)c1cccc(C(F)(F)F)c1`, the activation was -0.123% (inactive). For `COc1ccc(S(=O)(=O)Nc2ccc3c(c2)C(=O)N([C@@H](C)CO)C[C@H](C)[C@@H](CN(C)C(=O)Nc2cccc4ccccc24)O3)cc1`, the activation was -0.208% (inactive). With `CCCN(C)C[C@@H]1Oc2ncc(-c3ccccc3)cc2C(=O)N([C@H](C)CO)C[C@@H]1C` the activation was -0.269% (inactive). For `C[C@@H]1CN([C@H](C)CO)C(=O)c2cc(NC(=O)CCCCCC(=O)Nc3ccccc3N)ccc2O[C@@H]1CN(C)C(=O)Nc1ccc2c(c1)OCO2`, the activation was -0.103% (inactive). For `COc1ccc(S(=O)(=O)N(C)C[C@H]2Oc3c(NC(=O)Nc4c(C)noc4C)cccc3C(=O)N([C@@H](C)CO)C[C@H]2C)cc1`, the activation was -0.174% (inactive). For `C[C@H]1CN([C@@H](C)CO)C(=O)c2cccc(NC(=O)c3cnccn3)c2O[C@H]1CN(C)Cc1ccc2c(c1)OCO2`, the activation was -0.117% (inactive). For `C[C@H](CO)N1C[C@H](C)[C@H](CN(C)CC2CC2)Oc2ccc(NC(=O)Cc3ccccc3)cc2CC1=O`, the activation was 0.216% (inactive). With `C[C@@H]1CN([C@@H](C)CO)C(=O)c2cccc(NS(=O)(=O)c3ccc(F)cc3)c2O[C@H]1CN(C)Cc1ccc(C(=O)O)cc1` the activation was -0.15% (inactive). In the case of `C[C@@H]1CN([C@@H](C)CO)C(=O)Cc2cc(NC(=O)c3ccncc3)ccc2O[C@@H]1CN(C)C(=O)Nc1ccc(C(F)(F)F)cc1`, the activation is reported as -0.044% (inactive). For `C[C@@H]1CN([C@H](C)CO)C(=O)Cc2cc(NC(=O)Nc3ccccc3)ccc2O[C@@H]1CN(C)C`, the activation was 4.89% (inactive). With `C[C@@H]1CN([C@H](C)CO)C(=O)c2cccc(NC(=O)Nc3ccccc3)c2O[C@@H]1CN(C)S(=O)(=O)c1ccccc1` the activation was 0.268% (inactive). For `COc1ccccc1-c1nnc(NC(=O)CSc2nncn2C)s1`, the activation was -0.056% (inactive). With `COc1ccc(S(=O)(=O)N(C)C[C@H]2Oc3ccc(NC(=O)CCCN(C)C)cc3C(=O)N([C@@H](C)CO)C[C@H]2C)cc1` the activation was 0.162% (inactive). For `CC(C)NC(=O)Nc1ccc2c(c1)CC(=O)N([C@H](C)CO)C[C@@H](C)[C@H](CN(C)Cc1ccc(Oc3ccccc3)cc1)O2`, the activation was -0.138% (inactive). In the case of `COC(=O)c1noc(C)c1-c1ccnn1C(=O)c1ccc(C)cc1`, the activation is reported as 0.122% (inactive). For `CC(C)NC(=O)Nc1cccc2c1O[C@H](CN(C)Cc1ccc(Cl)c(Cl)c1)[C@H](C)CN([C@@H](C)CO)C2=O`, the activation was -0.02% (inactive). For `C[C@H](CO)N1C[C@H](C)[C@H](CN(C)S(=O)(=O)c2ccc(Cl)cc2)Oc2ccc(NC(=O)Cc3ccccc3)cc2C1=O`, the activation was -0.076% (inactive). For `CO[C@@H]1CN(C)C(=O)c2ccc(NC(=O)c3nc4ccccc4s3)cc2OC[C@@H](C)N(Cc2cncnc2)C[C@@H]1C`, the activation was -0.082% (inactive). In the case of `C[C@@H]1CN([C@@H](C)CO)C(=O)c2cc(NC(=O)Cn3cnnn3)ccc2O[C@H]1CN(C)Cc1ccc(Oc2ccccc2)cc1`, the activation is reported as 6.68% (inactive). In the case of `C[C@@H]1CN([C@H](C)CO)C(=O)c2cc(N(C)C)ccc2O[C@H]1CN(C)Cc1ccc(C(=O)O)cc1`, the activation is reported as -0.039% (inactive). With `COc1ccccc1NS(=O)(=O)c1c(C)[nH]c(C)c1C(=O)N1CCCC1` the activation was 13.9% (inactive). For `C[C@H](CO)N1C[C@H](C)[C@@H](CN(C)C(=O)NC2CCCCC2)Oc2ccc(NS(=O)(=O)c3ccccc3)cc2C1=O`, the activation was -0.099% (inactive). In the case of `C[C@@H]1CN([C@@H](C)CO)C(=O)Cc2cc(NS(C)(=O)=O)ccc2O[C@@H]1CN(C)S(=O)(=O)c1cn(C)cn1`, the activation is reported as -0.013% (inactive). For `Cc1cc(NC(=O)CCC(=O)N(c2ccccc2)C(C(=O)NC2CCCC2)c2ccc(F)cc2)no1` (stereo unspecified), the activation was 0.168% (inactive). With `CC(C)CCNC(=O)c1cn(C)c2ccc(S(=O)(=O)N3CCCC3)cc2c1=O` the activation was -0.129% (inactive). In the case of `COc1ccc(CN(C)C[C@H]2Oc3ccc(NC(=O)c4ccncc4)cc3C(=O)N([C@H](C)CO)C[C@@H]2C)cc1`, the activation is reported as 0.118% (inactive). In the case of `C[C@@H]1CN([C@@H](C)CO)C(=O)c2cccc(NS(=O)(=O)c3cn(C)cn3)c2O[C@H]1CN(C)C(=O)Nc1ccc2c(c1)OCO2`, the activation is reported as -0.015% (inactive). In the case of `CO[C@@H]1CN(C)C(=O)c2cc(NS(C)(=O)=O)ccc2OC[C@@H](C)N(C(=O)c2ccc3c(c2)OCO3)C[C@@H]1C`, the activation is reported as -0.203% (inactive). With `C[C@H](CO)N1C[C@H](C)[C@H](CN(C)S(=O)(=O)c2ccc(Cl)cc2)Oc2ccc(NC(=O)NC3CCCCC3)cc2C1=O` the activation was -0.048% (inactive). For `C[C@@H]1CN([C@@H](C)CO)C(=O)Cc2cc(NC(=O)NC3CCCCC3)ccc2O[C@H]1CN(C)C(=O)Nc1ccc2c(c1)OCO2`, the activation was 16.7% (inactive). For `Cc1ccc(S(=O)(=O)N(C)C[C@H]2Oc3ccc(NC(=O)CCCN(C)C)cc3C(=O)N([C@H](C)CO)C[C@H]2C)cc1`, the activation was -0.247% (inactive). For `C[C@H](CO)N1C[C@H](C)[C@@H](CN(C)S(=O)(=O)c2ccc(Cl)cc2)Oc2ccc(NS(=O)(=O)c3ccc(F)cc3)cc2CC1=O`, the activation was -0.113% (inactive). With `COCC(=O)N(C)C[C@H]1Oc2cc(-c3ccc(F)cc3)ccc2S(=O)(=O)N([C@@H](C)CO)C[C@H]1C` the activation was -0.091% (inactive). In the case of `COc1ccc(S(=O)(=O)Nc2ccc3c(c2)CC(=O)N([C@H](C)CO)C[C@@H](C)[C@H](CN(C)C(=O)NC2CCCCC2)O3)cc1`, the activation is reported as -0.114% (inactive). With `C[C@H](CO)N1C[C@H](C)[C@H](CN(C)Cc2ccc(C(F)(F)F)cc2)Oc2ccc(NC(=O)Cc3cn(C)c4ccccc34)cc2CC1=O` the activation was 0.156% (inactive). In the case of `COC(=O)C[C@H]1CC[C@H]2[C@@H](COc3ccc(NC(=O)C4CC4)cc3C(=O)N2C)O1`, the activation is reported as 3.57% (inactive). With `C[C@@H]1CN([C@H](C)CO)C(=O)c2cc(NS(=O)(=O)c3cn(C)cn3)ccc2O[C@H]1CN(C)C(=O)Nc1ccc2c(c1)OCO2` the activation was 0.041% (inactive). With `C[C@H]1CN([C@@H](C)CO)C(=O)c2cc(NC(=O)CCN3CCOCC3)ccc2O[C@H]1CN(C)S(C)(=O)=O` the activation was -0.165% (inactive). For `C=CCn1c(=N)n(CC(=O)c2ccc(Br)s2)c2ccccc21`, the activation was 1.81% (inactive). In the case of `Cc1cc2cc(CNC(=O)c3ccc(S(=O)(=O)N4CCCCC4)cc3)ccc2n1C`, the activation is reported as 0.135% (inactive). For `C[C@@H]1CN([C@@H](C)CO)C(=O)c2cccc(NC(=O)Nc3ccc(F)cc3)c2O[C@@H]1CN(C)Cc1ccncc1`, the activation was -0.005% (inactive). For `Cc1nn(CCS(=O)(=O)c2ccc(Cl)cc2)c(C)c1Br`, the activation was 0.08% (inactive). In the case of `COc1cccc(NC(=O)C2C3C=CC4(O3)C2C(=O)N(CCCN2CCCCC2)C4C(=O)NC2CCCCC2)c1` (stereo unspecified), the activation is reported as 1.56% (inactive).

Same assay, conditions: HUVEC E-selectin immunostaining, at 21 µM (top of the series), percent of TNF-alpha response over vehicle
For `C[C@H](CO)N1C[C@H](C)[C@H](CN(C)C(=O)Nc2ccc3c(c2)OCO3)Oc2c(NS(=O)(=O)c3ccc(Cl)cc3)cccc2C1=O`, the activation was -0.135% (inactive). With `C[C@H](CO)N1C[C@H](C)[C@H](CN(C)S(C)(=O)=O)Oc2c(NS(C)(=O)=O)cccc2C1=O` the activation was -0.054% (inactive). With `CC(C)NC(=O)Nc1ccc2c(c1)CC(=O)N([C@H](C)CO)C[C@H](C)[C@H](CN(C)Cc1ccc(Cl)c(Cl)c1)O2` the activation was 0.284% (inactive). For `CNC[C@@H]1Oc2c(NC(=O)Nc3ccc(F)cc3)cccc2C(=O)N([C@H](C)CO)C[C@H]1C`, the activation was -0.191% (inactive). For `C[C@@H]1CN([C@H](C)CO)C(=O)c2cccc(NS(C)(=O)=O)c2O[C@@H]1CN(C)Cc1ccc(Oc2ccccc2)cc1`, the activation was -0.185% (inactive). In the case of `Cc1noc(C)c1NC(=O)Nc1ccc2c(c1)CC(=O)N([C@H](C)CO)C[C@H](C)[C@H](CN(C)S(=O)(=O)c1ccccc1)O2`, the activation is reported as -0.132% (inactive). For `C[C@@H]1CN([C@@H](C)CO)C(=O)c2cc(NS(=O)(=O)c3cn(C)cn3)ccc2O[C@H]1CN(C)C(=O)Nc1ccc(F)cc1`, the activation was 0.066% (inactive). In the case of `Cc1noc(C)c1NC(=O)Nc1ccc2c(c1)CC(=O)N([C@@H](C)CO)C[C@@H](C)[C@@H](CN(C)Cc1ccc(Cl)c(Cl)c1)O2`, the activation is reported as 3.17% (inactive). In the case of `COc1ccc(CN(C)C[C@@H]2Oc3ccc(NC(=O)c4ccncc4)cc3C(=O)N([C@H](C)CO)C[C@H]2C)cc1`, the activation is reported as 0.114% (inactive). With `C[C@H]1CN([C@@H](C)CO)C(=O)Cc2cc(NS(C)(=O)=O)ccc2O[C@@H]1CN(C)Cc1ccc(Oc2ccccc2)cc1` the activation was 4.65% (inactive).
